A short description of series [1]: The drug is tested on Collinsella aerofaciens strain: ATCC25986 for biotransformation. The drug concentrations were measured before and after a 12-h incubation by liquid-chromatography-coupled mass spectrometry (LC–MS). Conditions: 2 µM.
A short description of series [2]: The drug is tested on Alistipes indistinctus strain: DSM22520 for biotransformation. The drug concentrations were measured before and after a 12-h incubation by liquid-chromatography-coupled mass spectrometry (LC–MS). Conditions: 2 µM.
Series [3] can be described thus: The drug is tested on Bacteroides caccae strain: ATCC43185 for biotransformation. The drug concentrations were measured before and after a 12-h incubation by liquid-chromatography-coupled mass spectrometry (LC–MS). Conditions: 2 µM.
Series [4] is described as follows: The drug is tested on Bacteroides cellulosilyticus strain: DSM14838 for biotransformation. The drug concentrations were measured before and after a 12-h incubation by liquid-chromatography-coupled mass spectrometry (LC–MS). Conditions: 2 µM.
The nature of series [5]: The drug is tested on Bacteroides finegoldii strain: DSM17565 for biotransformation. The drug concentrations were measured before and after a 12-h incubation by liquid-chromatography-coupled mass spectrometry (LC–MS). Conditions: 2 µM.
The nature of series [6]: The drug is tested on Bacteroides uniformis strain: ATCC8492 for biotransformation. The drug concentrations were measured before and after a 12-h incubation by liquid-chromatography-coupled mass spectrometry (LC–MS). Conditions: 2 µM.
A short description of series [7]: The drug is tested on Odoribacter splanchnicus strain: fecal isolate for biotransformation. The drug concentrations were measured before and after a 12-h incubation by liquid-chromatography-coupled mass spectrometry (LC–MS). Conditions: 2 µM.
The nature of series [8]: The drug is tested on Clostridium asparagiforme strain: DSM15981 for biotransformation. The drug concentrations were measured before and after a 12-h incubation by liquid-chromatography-coupled mass spectrometry (LC–MS). The conditions noted are these: enterocloster asparagiformis, 2 µM. In kind it is ADME. Also on record: dose 2 uM, timepoint 0 vs 12 hours.
Series [9] can be described thus: The drug is tested on Clostridium sp. strain: fecal isolate for biotransformation. The drug concentrations were measured before and after a 12-h incubation by liquid-chromatography-coupled mass spectrometry (LC–MS). The conditions noted are these: 2 µM.
A short description of series [10]: The drug is tested on Clostridium scindens strain: ATCC35704 for biotransformation. The drug concentrations were measured before and after a 12-h incubation by liquid-chromatography-coupled mass spectrometry (LC–MS). Conditions: 2 µM.
Series [11] in a line: The drug is tested on Clostridium symbiosum strain: ATCC14940 for biotransformation. The drug concentrations were measured before and after a 12-h incubation by liquid-chromatography-coupled mass spectrometry (LC–MS). Conditions: 2 µM.
Series [12] can be described thus: The drug is tested on Enterococcus faecalis strain: V583 for biotransformation. The drug concentrations were measured before and after a 12-h incubation by liquid-chromatography-coupled mass spectrometry (LC–MS). Conditions: 2 µM.
The nature of series [13]: The drug is tested on Eubacterium rectale strain: ATCC33656 for biotransformation. The drug concentrations were measured before and after a 12-h incubation by liquid-chromatography-coupled mass spectrometry (LC–MS). The conditions noted are these: agathobacter rectalis, 2 µM.
A short description of series [14]: The drug is tested on Escherichia coli strain: BW25113 for biotransformation. The drug concentrations were measured before and after a 12-h incubation by liquid-chromatography-coupled mass spectrometry (LC–MS). The conditions noted are these: 2 µM.
For series [15] the following is noted: bacteroides eggerthii, 12 h, 2 µM.
Description: The drug is tested on Bacteroides eggerthii strain: DSM20697 for biotransformation. The drug concentrations were measured before and after a 12-h incubation by liquid-chromatography-coupled mass spectrometry (LC–MS)
The conditions of series [16]: bacteroides thetaiotaomicron, 12 h, 2 µM.
Description: The drug is tested on Bacteroides thetaiotaomicron strain: 7330 for biotransformation. The drug concentrations were measured before and after a 12-h incubation by liquid-chromatography-coupled mass spectrometry (LC–MS)
For series [17] the following is noted: parabacteroides distasonis, 12 h, 2 µM.
Description: The drug is tested on Parabacteroides distasonis strain: ATCC8503 for biotransformation. The drug concentrations were measured before and after a 12-h incubation by liquid-chromatography-coupled mass spectrometry (LC–MS)
For series [18] the following is noted: parabacteroides johnsonii, 12 h, 2 µM.
Description: The drug is tested on Parabacteroides johnsonii strain: DSM18315 for biotransformation. The drug concentrations were measured before and after a 12-h incubation by liquid-chromatography-coupled mass spectrometry (LC–MS)
Series [19] can be described thus: The drug is tested on Bifidobacterium ruminantium strain: fecal isolate for biotransformation. The drug concentrations were measured before and after a 12-h incubation by liquid-chromatography-coupled mass spectrometry (LC–MS). The conditions noted are these: 2 µM.
For series [20] the following is noted: segatella copri, 12 h, 2 µM.
Description: The drug is tested on Prevotella copri strain: DSM18205 for biotransformation. The drug concentrations were measured before and after a 12-h incubation by liquid-chromatography-coupled mass spectrometry (LC–MS)

The text below walks through data of ChEMBL document CHEMBL5303573, “Mapping human microbiome drug metabolism by gut bacteria and their genes” (Nature, 2019).

Each structure is given as a SMILES string.

Turning to `CCN(CC)C(C)CN1c2ccccc2Sc2ccccc21` (stereo unspecified) [ETHOPROPAZINE], the “Bacterial Biotransformation” value is recorded as “Compound NOT metabolized” in series [1]; “Compound NOT metabolized” in series [2]; “Compound metabolized” in series [3]; “Compound NOT metabolized” in series [4]; “Compound NOT metabolized” in series [5]; “Compound metabolized” in [6]. Also, the “Bacterial Biotransformation” value in [7] is “Compound metabolized”; in series [8], “Compound NOT metabolized”; in series [9], “Compound metabolized”; in [10], “Compound NOT metabolized”; in [11], “Compound NOT metabolized”; in series [12] it was “Compound NOT metabolized”. In addition, the “Bacterial Biotransformation” value in series [13] is listed as “Compound NOT metabolized”; in [14], “Compound metabolized”; in [15], “Compound NOT metabolized”; in series [16] it was “Compound metabolized”; in series [17], “Compound metabolized”; in series [18], “Compound metabolized”.
For `OC(Cn1cncn1)(Cn1cncn1)c1ccc(F)cc1F` [FLUCONAZOLE], the “Bacterial Biotransformation” value in series [19] is “Compound metabolized”; in series [1], “Compound NOT metabolized”; in series [2], “Compound NOT metabolized”; in [3], “Compound NOT metabolized”; in series [4], “Compound NOT metabolized”; in series [5], “Compound NOT metabolized”. Also, the “Bacterial Biotransformation” value in [6] is reported as “Compound metabolized”; in series [7] it was “Compound metabolized”; in series [8] it was “Compound NOT metabolized”; in series [9], “Compound metabolized”; in series [10], “Compound metabolized”; in series [11], “Compound metabolized”. For the same compound, the “Bacterial Biotransformation” value in series [12] is reported as “Compound NOT metabolized”; in series [14], “Compound NOT metabolized”; in series [16], “Compound metabolized”; in series [17], “Compound NOT metabolized”; in series [18], “Compound metabolized”; in [20] it was “Compound NOT metabolized”.
Regarding `COc1ccc2c3c1O[C@H]1C[C@@H](O)C=C[C@@]31CCN(C)C2` [GALANTAMINE], the “Bacterial Biotransformation” value in [19] is “Compound NOT metabolized”; in series [1], “Compound NOT metabolized”; in series [2] it was “Compound metabolized”; in series [3], “Compound NOT metabolized”; in series [4], “Compound NOT metabolized”; in series [6], “Compound metabolized”. Further, the “Bacterial Biotransformation” value in [7] is listed as “Compound NOT metabolized”; in series [8] it was “Compound NOT metabolized”; in series [9] it was “Compound NOT metabolized”; in [10], “Compound NOT metabolized”; in series [11], “Compound NOT metabolized”; in series [12] it was “Compound metabolized”. The “Bacterial Biotransformation” value in [14] is reported as “Compound NOT metabolized”; in series [15], “Compound metabolized”; in series [16] it was “Compound metabolized”; in series [18], “Compound NOT metabolized”; in series [20], “Compound metabolized”.
Take `CN1CCN(C2=Nc3ccccc3Oc3ccc(Cl)cc32)CC1.O=C(O)CCC(=O)O` [LOXAPINE SUCCINATE]: the “Bacterial Biotransformation” value in series [2], in series [3], in series [4], in series [5], in series [6] and in series [7] was “Compound NOT metabolized” throughout. The “Bacterial Biotransformation” value in [8], in [9], in [11], in series [12], in series [13] and in [14] was “Compound NOT metabolized” each time. The “Bacterial Biotransformation” value in [15], in series [16], in [17], in [18] and in [20] was “Compound NOT metabolized” in each case.
In the case of `COc1ccccc1N1CCN(CC(O)COc2cccc3ccccc23)CC1` (stereo unspecified) [NAFTOPIDIL], the “Bacterial Biotransformation” value in [1], in [2], in series [3], in series [4], in [5] and in [6] was “Compound NOT metabolized” in each case. Moreover, the “Bacterial Biotransformation” value in series [7], in [8], in series [9], in series [10], in [11] and in series [12] was “Compound NOT metabolized” throughout. The “Bacterial Biotransformation” value in series [13], in series [14], in [15], in series [16], in series [17] and in [18] was “Compound NOT metabolized” in each case. Besides, the “Bacterial Biotransformation” value in [20] is “Compound NOT metabolized”.
For `NC(=O)N1c2ccccc2CC(=O)c2ccccc21` [OXCARBAZEPINE], the “Bacterial Biotransformation” value is on record as “Compound metabolized” in series [19]; “Compound NOT metabolized” in series [1]; “Compound metabolized” in series [2]; “Compound NOT metabolized” in [3]; “Compound NOT metabolized” in series [4]; “Compound NOT metabolized” in series [5]. Further, the “Bacterial Biotransformation” value in series [6] is “Compound metabolized”; in [7], “Compound metabolized”; in series [8], “Compound NOT metabolized”; in series [9], “Compound NOT metabolized”; in [10] it was “Compound metabolized”; in [11], “Compound metabolized”. Moreover, the “Bacterial Biotransformation” value in series [12] was “Compound NOT metabolized”; in series [13], “Compound metabolized”; in series [14], “Compound metabolized”; in [15], “Compound NOT metabolized”; in series [17], “Compound metabolized”; in [20] it was “Compound NOT metabolized”.
As to `Fc1ccc([C@@H]2CCNC[C@H]2COc2ccc3c(c2)OCO3)cc1` [PAROXETINE], the “Bacterial Biotransformation” value in [19] is on record as “Compound NOT metabolized”; in [1] it was “Compound NOT metabolized”; in series [2], “Compound NOT metabolized”; in [3], “Compound NOT metabolized”; in series [4], “Compound metabolized”; in series [5] it was “Compound metabolized”. Besides, the “Bacterial Biotransformation” value in series [6] was “Compound NOT metabolized”; in [7], “Compound NOT metabolized”; in series [8], “Compound NOT metabolized”; in series [9], “Compound metabolized”; in series [10], “Compound NOT metabolized”; in series [11], “Compound NOT metabolized”. Besides, the “Bacterial Biotransformation” value in [12] is “Compound NOT metabolized”; in series [14], “Compound NOT metabolized”; in [15], “Compound NOT metabolized”; in series [16] it was “Compound NOT metabolized”; in [17], “Compound NOT metabolized”; in series [18], “Compound metabolized”. In series [20], the “Bacterial Biotransformation” value is “Compound NOT metabolized”.
